{
  "source": "patent US20090117563A1",
  "about": "“Identification of TRPML3 (MCOLN3) as a Salty Taste Receptor and Use in Assays for Identifying Taste (Salty) Modulators and/or Therapeutics that Modulate Sodium Transport, Absorption or Excretion and/or Aldosterone and/or Vasopressin Production or Release” (priority 2007, published 2009)",
  "biological_target": "T1, A419P TRPML3 (Homo sapiens, UniProt Q8TDD5, A419P)",
  "T1 construct": "expressed in transfected cells",
  "T1 sequence (Q8TDD5 1-553 A419P)": "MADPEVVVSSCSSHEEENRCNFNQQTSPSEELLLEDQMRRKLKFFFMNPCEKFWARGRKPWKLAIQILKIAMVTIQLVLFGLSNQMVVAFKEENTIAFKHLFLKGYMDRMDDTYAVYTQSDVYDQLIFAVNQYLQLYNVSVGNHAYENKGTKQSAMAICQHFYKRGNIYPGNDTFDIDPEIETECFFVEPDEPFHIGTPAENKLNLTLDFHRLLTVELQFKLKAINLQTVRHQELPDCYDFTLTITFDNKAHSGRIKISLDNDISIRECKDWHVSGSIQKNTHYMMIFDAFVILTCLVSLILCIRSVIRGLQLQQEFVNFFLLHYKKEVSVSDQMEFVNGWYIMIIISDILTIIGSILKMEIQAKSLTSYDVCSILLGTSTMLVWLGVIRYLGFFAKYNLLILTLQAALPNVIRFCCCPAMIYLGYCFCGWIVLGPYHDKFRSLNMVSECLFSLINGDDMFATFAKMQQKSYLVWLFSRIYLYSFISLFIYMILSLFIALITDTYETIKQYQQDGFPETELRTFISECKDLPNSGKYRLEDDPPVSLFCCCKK",
  "experiment": "IonWorks PPC patch clamp, inducible CHO-K1 cell line expressing A419P TRPML3",
  "format": "cell-based",
  "details": "4 mM GdCl3 solution",
  "excerpt": "Different versions of human TRPML3 can be assayed, included but not limited to a wild-type version and a gain of function mutant version encoding an A419P substitution. TRPML3 can be expressed in CHO-K1 cells by one of three methods: (i) transient transfection (ii) BacMam transduction or (iii) a stable transfection and TRPML3 function measured using the perforated patch clamp technique on an IonWorks Quattro instrument (MDS Analytical Technologies). Cells are dissociated with Detachin cell detachment solution (Genlantis), centrifuged, and resuspended in external recording buffer (150 mM NaCl, 2 mM KCl, 1.5 mM CaCl2, 1 mM MgCl2, 10 mM HEPES pH 7.4 with NaOH). […]\nThe following description illustrates the IonWorks screening assay to identify compounds that modulate (activate or block) TRPML3 function. […] In each scan currents are measured as the voltage is modified (see example voltage command trace in FIG. 29).\nCompounds will be applied at concentrations between ˜1 uM and 100 uM. […] Compounds that enhance TRPML3 by affecting the voltage dependent rectification will be preferentially detected at −40 mV where the rectification is strong while compounds that block TRPML3 will be preferentially detected at −120 mV where the TRPML3 currents are larger. To quantitate the effect of a compound on TRPML3 function, we use the following formula: [(A−Ao)/(B−Bo)]×100. […]",
  "data": [
    {"compound": "[Cl][Gd]([Cl])[Cl]", "note": "[gadolinium, gadolinium chloride]", "values": [
      {"measurement": "effect on TRPML3 current (IonWorks scan)", "result": "blocks TRPML3 current"}
    ]}
  ]
}
